Experimental data reported in patent publication US6417167B1, “Lyophilized compositions containing shingoglycolipid and process for preparing them” (Kirin Beer Kabushiki Kaisha, priority 1997, dated 2002).

Assays:
Type in all cases: physicochemical
[1] = Examination of optimal formulation: re-solubility after storage; conditions: lyophilized, Polysorbate 20 0.5%
Description: (§1) First, Polysorbate 20 was dissolved in distilled water in a concentration of 0.5%, and sucrose and histidine or sodium deoxycholate in such concentrations listed on Table 11. Next, 20 mg of the active component (KRN7000) was weighed and stirred in 100 ml of the solvents in a heated bath to 80° C. for 20 minutes in order to form a solution. After cooling with running water, the mixture was filtered through a 0.22 μm filter, and transparent colorless glass vials having a volume of 5 ml were charged with a 1 ml portion of each of a variety of solutions thus obtained and subjected to lyophilization. Lyophilization was carried out under the condition of preliminary freezing at −40° C. for 2 hours and drying at −20° C. for 24 hours, 10° C. for 12 hours, and finally at 25° C. for 5 hours to give the lyophilized product. The degree of vacuum was set at 0.1 Torr or less during drying step.
After the lyophilization step, the lyophilized composition thus obtained was stored at 25° C. or 50° C. After storage at 25° C. for 2 months or at 50° C. for 2 weeks, the lyophilized composition was reconstituted in 1 ml of distilled water for injection, left standing for 30 minutes, and solubility was judged when the foams generated on reconstitution disappeared. The samples judged to be solution after storage at 25° C. for 2 months were further stored, and judged again of their solubility after storage for 4 months.
(§2) The solubility was judged by cleaning the outside of the vial and placing it beneath the white light source in a darkroom for observation with naked eye at the position of a luminous intensity of about 5,000 lux. When the sample was clear with no precipitates, it was judged that the active component was dissolved.

[2] = Excipient appropriate to lyophilization 2: re-solubility after storage; conditions: lyophilized, Polysorbate 20 0.5%, 25° C.
Description: The lyophilized preparations having mannitol and sucrose added thereto were observed on their variation with the passage of time.
as §1, with “and the saccharides were dissolved” for “and sucrose and histidine or sodium deoxycholate”, “concentrations as” for “concentrations”, “listed in” for “listed on”, “Table 7.” for “Table 11.”
After the lyophilization step, the lyophilized composition was stored at 25° C. After storage for 1 month, the lyophilized composition was reconstituted in 1 ml of distilled water for injection, left standing for 30 minutes, and solubility was judged when the foams generated on reconstitution disappeared. The samples judged in solution were further stored, and judged again of their solubility after 4 months.
as §2

[3] = Lyophilized preparations with Polysorbate 20 alone: re-solubility immediately after lyophilization; conditions: KRN7000 200 μg/ml, reconstituted in 1 ml distilled water for injection
Description: as §1, with “Next,” for “First, Polysorbate 20 was dissolved in distilled water in a concentration of 0.5%, and sucrose and histidine or sodium deoxycholate in such concentrations listed on Table 11. Next,”, “Polysorbate solutions having a variety of concentrations” for “solvents”, “solutions” for “solutions thus obtained”, “lyophilizaiton.” for “lyophilization.”
After the lyophilization step, the lyophilized composition was reconstituted in 1 ml of distilled water for injection, left standing for 30 minutes, and solubility was judged when the foams generated on reconstituiton disappeared.
as §2

In the case of `CCCCCCCCCCCCCCCCCCCCCCCCCC(=O)N[C@@H](CO[C@H]1O[C@H](CO)[C@H](O)[C@H](O)[C@H]1O)[C@H](O)[C@H](O)CCCCCCCCCCCCCC` [KRN7000, (2S,3S,4R)-1-(α-D-galactopyranosyloxy)-2-hexacosanoylamino-3,4-octadecanediol], the “Re-solubility after storage (by naked eye)” value (“Re-solubility after storage” below) ([1]; Sucrose 1.1%, Histidine, 4%, 50° C., 2 weeks) is reported as “+ (not dissolved (or deposited))”, the “Re-solubility after storage” value ([1]; Sucrose 3.1%, Histidine, 3%, 50° C., 2 weeks) is reported as “− (dissolved)” and the “Re-solubility after storage” value ([1]; Sucrose 3.2%, Histidine, 2%, 50° C., 2 weeks) is reported as “− (dissolved)”. For the same compound, the “Re-solubility after storage” value ([1]; Sucrose 4.8%, Sodium deoxycholate, 0.2%, 25° C., 2 months) was “+ (not dissolved (or deposited))”, the “Re-solubility after storage” value ([1]; Sucrose 4.8%, Sodium deoxycholate, 0.5%, 25° C., 2 months) was “− (dissolved)” and the “Re-solubility after storage” value ([1]; Sucrose 4.8%, Sodium deoxycholate, 0.5%, 25° C., 4 months) was “− (dissolved)”. The “Re-solubility after storage” value ([1]; Sucrose 4.8%, Sodium deoxycholate, 1%, 25° C., 2 months) was “− (dissolved)”, the “Re-solubility after storage” value ([1]; Sucrose 4.8%, Sodium deoxycholate, 1%, 25° C., 4 months) was “− (dissolved)” and the “Re-solubility after storage” value ([1]; Sucrose 4.8%, Sodium deoxycholate, 2%, 25° C., 2 months) was “− (dissolved)”. The “Re-solubility after storage” value ([1]; Sucrose 4.8%, Sodium deoxycholate, 2%, 25° C., 4 months) was “− (dissolved)”, the “Re-solubility after storage” value ([1]; Sucrose 5.0%, Histidine, 2%, 50° C., 2 weeks) was “− (dissolved)” and the “Re-solubility after storage” value ([1]; Sucrose 5.1%, Histidine, 1%, 50° C., 2 weeks) was “− (dissolved)”. For the same compound, the “Re-solubility after storage” value ([1]; Sucrose 6.9%, Histidine, 1%, 50° C., 2 weeks) was “− (dissolved)”, the “Re-solubility after storage” value ([1]; Sucrose 7.9%, Histidine, 0.5%, 50° C., 2 weeks) was “+ (not dissolved (or deposited))” and the “Re-solubility after storage” value ([1]; Sucrose 9.6%, Histidine, 2%, 50° C., 2 weeks) was “− (dissolved)”. The “Re-solubility after storage” value ([1]; Sucrose 9.6%, Sodium deoxycholate, 0.2%, 25° C., 2 months) was “+ (not dissolved (or deposited))”, the “Re-solubility after storage” value ([1]; Sucrose 9.6%, Sodium deoxycholate, 0.5%, 25° C., 2 months) was “− (dissolved)” and the “Re-solubility after storage” value ([1]; Sucrose 9.6%, Sodium deoxycholate, 0.5%, 25° C., 4 months) was “− (dissolved)”. The “Re-solubility after storage” value ([1]; Sucrose 9.6%, Sodium deoxycholate, 1%, 25° C., 2 months) was “− (dissolved)”, the “Re-solubility after storage” value ([1]; Sucrose 9.6%, Sodium deoxycholate, 1%, 25° C., 4 months) was “− (dissolved)” and the “Re-solubility after storage” value ([1]; Sucrose 9.6%, Sodium deoxycholate, 2%, 25° C., 2 months) was “− (dissolved)”. The “Re-solubility after storage” value ([1]; Sucrose 9.6%, Sodium deoxycholate, 2%, 25° C., 4 months) was “− (dissolved)”, the “Re-solubility after storage” value ([1]; Sucrose 19.2%, Sodium deoxycholate, 0.1%, 25° C., 2 months) was “+ (not dissolved (or deposited))” and the “Re-solubility after storage” value ([1]; Sucrose 19.2%, Sodium deoxycholate, 0.2%, 25° C., 2 months) was “+ (not dissolved (or deposited))”. For the same compound, the “Re-solubility after storage” value ([1]; Sucrose 19.2%, Sodium deoxycholate, 0.5%, 25° C., 2 months) was “+ (not dissolved (or deposited))”, the “Re-solubility after storage” value ([1]; Sucrose 19.2%, Sodium deoxycholate, 1%, 25° C., 2 months) was “+ (not dissolved (or deposited))” and the “Re-solubility after storage” value ([1]; Sucrose 19.2%, Sodium deoxycholate, 2%, 25° C., 2 months) was “+ (not dissolved (or deposited))”. The “Re-solubility after storage” value ([2]; Mannitol 10%, 1 month) was “− (dissolved)”, the “Re-solubility after storage” value ([2]; Mannitol 10%, 4 months) was “+ (not dissolved (or deposited))” and the “Re-solubility after storage” value ([2]; Sucrose 9.6%, 1 month) was “− (dissolved)”. For the same compound, the “Re-solubility after storage” value ([2]; Sucrose 9.6%, 4 months) was “+ (not dissolved (or deposited))”, the “Re-solubility immediately after lyophilization (by naked eye)” value (“Re-solubility immediately” for short) ([3]; Polysorbate 20 0.5%) was “+ (not dissolved (or deposited))” and the “Re-solubility immediately” value ([3]; Polysorbate 20 1.0%) was “+ (not dissolved (or deposited))”. The “Re-solubility immediately” value ([3]; Polysorbate 20 2.0%) was “+ (not dissolved (or deposited))”.
